Results as given in ChEMBL document CHEMBL2321758, “Discovery of 4-{4-[(3R)-3-Methylmorpholin-4-yl]-6-[1-(methylsulfonyl)cyclopropyl]pyrimidin-2-yl}-1H-indole (AZ20): a potent and selective inhibitor of ATR protein kinase with monotherapy in vivo antitumor activity” (J Med Chem, 2013).
≈ marks a conversion by molar mass, not a printed value. Calls of active or inactive are those of the source. No cut-off for these calls is given here.

Tests used:
[1] = molecular target: Voltage-gated inwardly rectifying potassium channel KCNH2 (Homo sapiens, UniProt Q12809)
Voltage-gated inwardly rectifying potassium channel KCNH2, sequence (Q12809 whole entry): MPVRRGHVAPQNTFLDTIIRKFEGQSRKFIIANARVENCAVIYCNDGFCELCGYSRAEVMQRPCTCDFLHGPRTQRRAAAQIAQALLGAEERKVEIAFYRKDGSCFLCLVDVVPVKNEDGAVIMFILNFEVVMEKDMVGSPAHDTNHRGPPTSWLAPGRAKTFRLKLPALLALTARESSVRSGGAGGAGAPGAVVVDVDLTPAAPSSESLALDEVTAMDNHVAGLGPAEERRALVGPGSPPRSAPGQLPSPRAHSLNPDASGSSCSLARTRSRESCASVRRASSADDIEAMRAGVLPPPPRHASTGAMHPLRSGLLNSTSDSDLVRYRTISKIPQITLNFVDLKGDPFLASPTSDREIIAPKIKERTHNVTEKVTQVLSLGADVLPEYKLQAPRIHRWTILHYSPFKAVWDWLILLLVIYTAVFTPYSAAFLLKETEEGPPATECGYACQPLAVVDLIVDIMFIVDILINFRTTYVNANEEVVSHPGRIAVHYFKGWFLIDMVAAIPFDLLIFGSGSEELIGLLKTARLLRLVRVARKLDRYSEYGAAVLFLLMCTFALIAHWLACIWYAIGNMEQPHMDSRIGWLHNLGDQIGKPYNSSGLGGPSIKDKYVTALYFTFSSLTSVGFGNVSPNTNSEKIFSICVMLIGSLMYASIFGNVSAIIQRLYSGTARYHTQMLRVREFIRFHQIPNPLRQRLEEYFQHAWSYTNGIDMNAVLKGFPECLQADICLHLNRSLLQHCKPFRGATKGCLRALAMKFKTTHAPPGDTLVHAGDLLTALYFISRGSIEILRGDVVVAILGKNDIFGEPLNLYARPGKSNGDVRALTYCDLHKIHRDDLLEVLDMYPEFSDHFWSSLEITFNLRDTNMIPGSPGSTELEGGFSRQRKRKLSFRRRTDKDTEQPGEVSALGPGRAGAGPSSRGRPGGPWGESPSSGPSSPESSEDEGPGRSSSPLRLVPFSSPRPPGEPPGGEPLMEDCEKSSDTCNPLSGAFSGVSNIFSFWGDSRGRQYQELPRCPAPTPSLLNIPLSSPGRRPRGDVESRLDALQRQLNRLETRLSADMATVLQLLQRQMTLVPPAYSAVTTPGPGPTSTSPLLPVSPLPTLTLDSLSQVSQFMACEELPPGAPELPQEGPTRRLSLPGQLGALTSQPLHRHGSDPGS

[2] = Solubility of the compound in phosphate buffer after 24 hrs at pH 7.4 by LC-UV-MS analysis; format: physicochemical
[3] = AUC in Han-Wistar rat at 4 umol/kg, po; format: ADME, organism-based; conditions: plasma
[4] = in vitro; conditions: rat, hepatocytes
[5] = Fraction unbound in rat plasma; format: ADME, cell-free
[6] = molecular target: T1, Serine/threonine-protein kinase mTOR (Homo sapiens, UniProt P42345); assay: Inhibition of mTOR-mediated AKT phosphorylation at serine 473 in human MDA-MB-468 cells; format: cell-based
[7] = physchem; conditions: octanol/buffer, pH 7.4
[8] = molecular target: T2, Phosphatidylinositol 4,5-bisphosphate 3-kinase catalytic subunit alpha isoform (Homo sapiens, UniProt P42336); assay: Inhibition of PI3Kalpha (unknown origin)
T2 sequence (P42336 whole entry, canonical isoform): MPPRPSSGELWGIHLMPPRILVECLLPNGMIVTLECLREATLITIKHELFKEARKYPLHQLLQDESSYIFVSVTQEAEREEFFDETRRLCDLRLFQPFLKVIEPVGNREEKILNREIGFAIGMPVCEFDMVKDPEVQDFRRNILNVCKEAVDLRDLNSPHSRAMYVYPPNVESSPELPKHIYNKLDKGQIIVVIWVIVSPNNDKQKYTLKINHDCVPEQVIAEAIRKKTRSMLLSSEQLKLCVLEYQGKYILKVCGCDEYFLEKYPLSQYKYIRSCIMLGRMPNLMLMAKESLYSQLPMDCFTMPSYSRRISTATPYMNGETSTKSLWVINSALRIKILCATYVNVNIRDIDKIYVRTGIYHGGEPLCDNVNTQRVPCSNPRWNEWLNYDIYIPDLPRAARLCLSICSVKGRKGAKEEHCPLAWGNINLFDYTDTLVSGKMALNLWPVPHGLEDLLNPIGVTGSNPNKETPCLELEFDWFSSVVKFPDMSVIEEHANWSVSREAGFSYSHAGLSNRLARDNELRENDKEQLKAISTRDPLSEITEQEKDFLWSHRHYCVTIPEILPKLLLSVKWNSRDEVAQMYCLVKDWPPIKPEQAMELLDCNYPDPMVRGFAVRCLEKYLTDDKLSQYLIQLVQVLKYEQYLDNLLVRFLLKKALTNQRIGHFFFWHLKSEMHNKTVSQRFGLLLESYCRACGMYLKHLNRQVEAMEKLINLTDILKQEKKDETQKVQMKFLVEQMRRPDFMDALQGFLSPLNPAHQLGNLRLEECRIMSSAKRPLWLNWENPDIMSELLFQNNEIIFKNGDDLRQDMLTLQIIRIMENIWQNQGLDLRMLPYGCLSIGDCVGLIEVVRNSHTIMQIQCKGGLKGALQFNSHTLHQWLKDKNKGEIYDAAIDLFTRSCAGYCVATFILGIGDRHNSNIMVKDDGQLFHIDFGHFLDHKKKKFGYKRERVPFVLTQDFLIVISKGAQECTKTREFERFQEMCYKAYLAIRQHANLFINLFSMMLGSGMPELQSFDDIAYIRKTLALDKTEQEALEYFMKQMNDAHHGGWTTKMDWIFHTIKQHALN

[9] = Apparent permeability from apical to basolateral side in human Caco2 cells at 10 uM at pH 6.5; format: ADME, cell-based; conditions: Caco-2, pH 6.5
[10] = molecular target: T3, Serine/threonine-protein kinase ATR (Homo sapiens, UniProt Q13535); format: cell-based, HT-29
T3 sequence (Q13535 whole entry): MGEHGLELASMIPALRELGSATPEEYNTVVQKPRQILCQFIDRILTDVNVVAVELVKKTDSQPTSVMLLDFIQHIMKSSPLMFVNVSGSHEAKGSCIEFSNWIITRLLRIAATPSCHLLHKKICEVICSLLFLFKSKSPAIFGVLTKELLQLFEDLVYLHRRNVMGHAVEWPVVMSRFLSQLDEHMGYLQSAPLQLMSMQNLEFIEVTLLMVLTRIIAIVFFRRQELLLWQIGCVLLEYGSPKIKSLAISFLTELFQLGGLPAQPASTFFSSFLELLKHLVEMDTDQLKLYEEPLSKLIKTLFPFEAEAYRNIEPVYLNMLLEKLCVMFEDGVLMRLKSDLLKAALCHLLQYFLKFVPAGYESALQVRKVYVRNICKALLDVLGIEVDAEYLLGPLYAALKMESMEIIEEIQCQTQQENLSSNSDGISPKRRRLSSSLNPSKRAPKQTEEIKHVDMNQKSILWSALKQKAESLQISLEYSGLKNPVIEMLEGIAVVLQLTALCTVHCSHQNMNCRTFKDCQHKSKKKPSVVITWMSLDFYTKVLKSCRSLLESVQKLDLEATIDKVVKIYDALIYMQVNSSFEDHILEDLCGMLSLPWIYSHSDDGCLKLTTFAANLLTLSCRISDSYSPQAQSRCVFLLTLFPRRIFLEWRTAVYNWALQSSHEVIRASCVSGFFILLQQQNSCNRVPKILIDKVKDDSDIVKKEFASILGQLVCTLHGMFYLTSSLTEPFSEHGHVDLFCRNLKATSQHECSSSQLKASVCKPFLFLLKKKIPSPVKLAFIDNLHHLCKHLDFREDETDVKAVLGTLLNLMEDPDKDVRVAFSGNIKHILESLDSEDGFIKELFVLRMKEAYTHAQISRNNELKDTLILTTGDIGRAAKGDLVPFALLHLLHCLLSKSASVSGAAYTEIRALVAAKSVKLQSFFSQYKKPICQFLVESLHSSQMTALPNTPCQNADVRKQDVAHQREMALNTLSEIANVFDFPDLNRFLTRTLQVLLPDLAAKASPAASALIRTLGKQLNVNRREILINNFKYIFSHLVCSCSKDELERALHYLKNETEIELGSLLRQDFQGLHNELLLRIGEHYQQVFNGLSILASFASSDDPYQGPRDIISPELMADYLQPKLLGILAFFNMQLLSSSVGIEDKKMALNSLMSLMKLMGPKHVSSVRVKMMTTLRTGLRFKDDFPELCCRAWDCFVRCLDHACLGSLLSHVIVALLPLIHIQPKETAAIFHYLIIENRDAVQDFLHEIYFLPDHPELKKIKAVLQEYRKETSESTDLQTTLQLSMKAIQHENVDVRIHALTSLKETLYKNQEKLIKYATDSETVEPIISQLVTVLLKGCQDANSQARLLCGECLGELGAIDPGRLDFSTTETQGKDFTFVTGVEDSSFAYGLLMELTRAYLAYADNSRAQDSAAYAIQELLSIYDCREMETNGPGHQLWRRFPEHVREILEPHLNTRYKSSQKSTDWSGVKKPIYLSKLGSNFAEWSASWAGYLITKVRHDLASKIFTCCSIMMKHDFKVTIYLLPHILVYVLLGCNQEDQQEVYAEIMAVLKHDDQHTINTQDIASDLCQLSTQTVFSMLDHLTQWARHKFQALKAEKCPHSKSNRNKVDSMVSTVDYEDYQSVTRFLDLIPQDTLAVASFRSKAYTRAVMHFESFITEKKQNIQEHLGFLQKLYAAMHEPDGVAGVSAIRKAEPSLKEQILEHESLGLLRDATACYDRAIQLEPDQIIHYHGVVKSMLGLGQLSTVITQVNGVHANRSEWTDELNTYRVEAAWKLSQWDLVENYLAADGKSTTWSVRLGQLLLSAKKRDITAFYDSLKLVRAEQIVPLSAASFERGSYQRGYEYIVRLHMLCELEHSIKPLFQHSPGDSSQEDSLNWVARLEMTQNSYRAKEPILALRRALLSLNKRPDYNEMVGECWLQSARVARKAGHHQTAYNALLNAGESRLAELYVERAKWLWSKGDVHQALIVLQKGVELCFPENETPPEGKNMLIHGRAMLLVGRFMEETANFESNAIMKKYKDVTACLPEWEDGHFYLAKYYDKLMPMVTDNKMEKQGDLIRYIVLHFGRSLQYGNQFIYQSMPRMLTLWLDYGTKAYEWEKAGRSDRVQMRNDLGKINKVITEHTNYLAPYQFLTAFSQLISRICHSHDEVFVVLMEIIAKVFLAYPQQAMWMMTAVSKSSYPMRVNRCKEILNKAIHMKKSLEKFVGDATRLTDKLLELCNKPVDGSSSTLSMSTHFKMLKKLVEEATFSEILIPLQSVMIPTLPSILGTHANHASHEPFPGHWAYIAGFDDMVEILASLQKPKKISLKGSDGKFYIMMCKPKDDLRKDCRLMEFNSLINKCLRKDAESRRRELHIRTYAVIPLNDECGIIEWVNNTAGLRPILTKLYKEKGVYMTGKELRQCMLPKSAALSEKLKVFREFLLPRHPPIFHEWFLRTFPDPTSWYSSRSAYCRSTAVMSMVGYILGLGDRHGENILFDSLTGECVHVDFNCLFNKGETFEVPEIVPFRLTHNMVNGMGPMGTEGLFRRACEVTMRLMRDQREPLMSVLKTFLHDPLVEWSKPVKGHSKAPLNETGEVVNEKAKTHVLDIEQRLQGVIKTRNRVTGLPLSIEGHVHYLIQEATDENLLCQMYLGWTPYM

[11] = Dissociation constant, pKa of the compound; format: physicochemical
[12] = molecular target: T3, Serine/threonine-protein kinase ATR
[13] = Aqueous solubility of the compound at pH 7.4; format: physicochemical; conditions: buffer
[14] = molecular target: T1, Serine/threonine-protein kinase mTOR; assay: Inhibition of recombinant mTOR (unknown origin) assessed as residual activity at 1 uM
[15] = molecular target: T2, Phosphatidylinositol 4,5-bisphosphate 3-kinase catalytic subunit alpha isoform; assay: Inhibition of PI3Kalpha (unknown origin) assessed as residual activity at 1 uM
[16] = Oral bioavailability in Han-Wistar rat at 4 umol/kg; format: ADME, organism-based; conditions: in vivo
[17] = system: LoVo; assay: Antitumor activity against human LoVo cells xenografted in Swiss nu/nu mouse assessed as tumor growth inhibition at 50 mg/kg, po qd for 13 days relative to control; format: functional, organism-based; set-up: dose 50 mg/kg
[18] = system: LoVo; assay: Antitumor activity against human LoVo cells xenografted in Swiss nu/nu mouse assessed as tumor growth inhibition at 25 mg/kg, po bid for 13 days relative to control; format: functional, organism-based; set-up: dose 25 mg/kg
[19] = molecular target: T1, Serine/threonine-protein kinase mTOR; assay: Inhibition of recombinant mTOR (unknown origin)
[20] = Bioavailability in rat; format: ADME, organism-based; conditions: in vivo
[21] = Plasma clearance in rat; format: ADME, organism-based
[22] = Volume of distribution in rat; format: ADME, organism-based; conditions: in vivo
[23] = molecular target: DNA-dependent protein kinase catalytic subunit (Homo sapiens, UniProt P78527); assay: Inhibition of DNA-PK (unknown origin)

SMILES	IC50 [10] [nM]	IC50 [12] [nM]	other results
CS(=O)(=O)C1(c2cc(N3CCOCC3)nc(-c3cccc4[nH]ccc34)n2)CCNCC1	420	9	IC50 [1]: > 33000 nM; solubility at 24 h [2]: 230 µM (≈ 102 µg/mL); AUC [3]: 0.04 µM·h; hepatocyte CLint at 1 µM [4]: 9.4 µL/min/1e6 cells; fraction unbound [5]: 0.4; IC50 [6]: 1500 nM; logD [7]: 0.7; IC50 [8]: 2700 nM; Papp A→B at 10 µM [9]: 0.2 ×10⁻⁶ cm/s; pKa [11]: 8.8
Cc1cc2c(-c3nc(N4CCOCC4)cc(C4(S(C)(=O)=O)CC4)n3)cccc2[nH]1	2500	28	
CN(C)C(=O)c1cc(-c2nc(N3CCOCC3)cc(C3(S(C)(=O)=O)CC3)n2)c2cc[nH]c2c1	24000	720	
CS(=O)(=O)C1(c2cc(N3CCOCC3)nc(-c3cccc4[nH]c(C#N)cc34)n2)CC1	7200	300	
CS(=O)(=O)Cc1cc(N2CCOCC2)nc(-c2cccc3cc[nH]c23)n1	> 30000	180	
Cc1ccc(-c2nc(N3CCOCC3)cc(C3(S(C)(=O)=O)CC3)n2)c2cc[nH]c12	6300	220	
Cc1cc(-c2nc(N3CCOCC3)cc(C3(S(C)(=O)=O)CC3)n2)c2cc[nH]c2c1	490	8	
CS(=O)(=O)C1(c2cc(N3CCOCC3)nc(-c3cccc(N)c3)n2)CC1	> 30000	1200	
CS(=O)(=O)C1(c2cc(N3CCOCC3)nc(-c3ccccc3)n2)CC1	> 30000	360	
Cc1ccc2[nH]ccc2c1-c1nc(N2CCOCC2)cc(C2(S(C)(=O)=O)CC2)n1	> 30000		solubility [13]: 96 µM (≈ 39.6 µg/mL)
C[C@H]1COCCN1c1cc(C2(S(C)(=O)=O)CC2)nc(-c2cccc3[nH]ccc23)n1			logD [7]: 2.8
Cc1c[nH]c2cccc(-c3nc(N4CCOCC4)cc(C4(S(C)(=O)=O)CC4)n3)c12	> 30000	14000	
C[C@@H]1COCCN1c1cc(C2(S(C)(=O)=O)CC2)nc(-c2cccc3[nH]ccc23)n1			Activity [14]: < 50%; logD [7]: 2.7; Activity [15]: < 50%; Papp A→B at 10 µM [9]: 23 ×10⁻⁶ cm/s; bioavailability [16]: 62%; TGI [17]: Active; TGI [18]: Active
CS(=O)(=O)C1(c2cc(N3CCOCC3)nc(-c3cc(C#N)cc4[nH]ccc34)n2)CC1	1500		
CS(=O)(=O)C1(c2cc(N3CCOCC3)nc(-c3cccc4[nH]c(C(N)=O)cc34)n2)CC1	> 30000	1100	
CS(=O)(=O)Cc1cc(N2CCOCC2)nc(-c2ccc3cc[nH]c3c2)n1	> 30000	1500	
CS(=O)(=O)C1(c2cc(N3CCOCC3)nc(-c3cc(C(N)=O)cc4[nH]ccc34)n2)CC1	9200	41	

SMILES	IC50 [10] [nM]	IC50 [12] [nM]	other results
CN1CCC(c2cc(N3CCOCC3)nc(-c3cccc4[nH]ccc34)n2)(S(C)(=O)=O)CC1	3700	61	logD [7]: 1.9
CC(C)(c1cc(N2CCOCC2)nc(-c2cccc3[nH]ccc23)n1)S(C)(=O)=O	280	3	solubility at 24 h [2]: < 0.4 µM; AUC [3]: 0.76 µM·h; hepatocyte CLint at 1 µM [4]: 41 µL/min/1e6 cells; fraction unbound [5]: 0.2; IC50 [19]: 190 nM; IC50 [6]: 2700 nM; logD [7]: 2.7; IC50 [8]: 1600 nM; Papp A→B at 10 µM [9]: 16 ×10⁻⁶ cm/s
O=S(=O)(c1ccccn1)C1(c2cc(N3CCOCC3)nc(-c3cccc4[nH]ccc34)n2)CC1	2000	33	
O=S(=O)(C1CCOCC1)C1(c2cc(N3CCOCC3)nc(-c3cccc4[nH]ccc34)n2)CC1	2800	33	
CC[C@@H]1COCCN1c1cc(C2(S(C)(=O)=O)CC2)nc(-c2cccc3[nH]ccc23)n1	4400	170	logD [7]: 3
O=S(=O)(C1CCNCC1)C1(c2cc(N3CCOCC3)nc(-c3cccc4[nH]ccc34)n2)CC1	2900	46	
CS(=O)(=O)Cc1cc(N2CCOCC2)nc(-c2ccc3[nH]ccc3c2)n1	> 30000	1700	
CS(=O)(=O)C1(c2cc(N3CCOCC3)nc(-c3cccc4c3CC(=O)N4)n2)CC1	16000	120	
CS(=O)(=O)C1(c2cc(N3CCOCC3)nc(-c3cccc4[nH]ccc34)n2)CC1			bioavailability [20]: 70%; solubility at 24 h [2]: 4.4 µM (≈ 1.75 µg/mL); clearance [21]: 15 mL/min/kg; AUC [3]: 3.1 µM·h; hepatocyte CLint at 1 µM [4]: < 3 µL/min/1e6 cells; fraction unbound [5]: 0.23; Vd [22]: 2.1 L/kg; IC50 [6]: 3200 nM; logD [7]: 2.2; IC50 [8]: 940 nM; Papp A→B at 10 µM [9]: 21 ×10⁻⁶ cm/s
CS(=O)(=O)C1(c2cc(N3CCOCC3)nc(-c3cccc4[nH]ccc34)n2)CCOCC1	180	4	IC50 [1]: > 33000 nM; solubility at 24 h [2]: 1.8 µM (≈ 0.797 µg/mL); AUC [3]: 0.32 µM·h; hepatocyte CLint at 1 µM [4]: 23 µL/min/1e6 cells; fraction unbound [5]: 0.25; IC50 [6]: 3300 nM; logD [7]: 2.4; IC50 [8]: 1400 nM; Papp A→B at 10 µM [9]: 28 ×10⁻⁶ cm/s
CS(=O)(=O)C1(c2cc(N3CCOCC3)nc(-c3cc(Cl)cc4[nH]ccc34)n2)CC1	720	16	
Cn1ccc2c(-c3nc(CS(C)(=O)=O)cc(N4CCOCC4)n3)cccc21	> 30000	3300	
O=S(=O)(c1ccccc1)C1(c2cc(N3CCOCC3)nc(-c3cccc4[nH]ccc34)n2)CC1	590	5	
CS(=O)(=O)Cc1cc(N2CCOCC2)nc(-c2cccc3[nH]ccc23)n1	1100	30	IC50 [19]: 330 nM; IC50 [23]: 2700 nM; IC50 [6]: 5900 nM; logD [7]: 1.7; IC50 [8]: 3800 nM
CS(=O)(=O)C1(c2cc(N3CCOCC3)nc(-c3cccc4[nH]ncc34)n2)CC1	13000	130	
CC(C)S(=O)(=O)C1(c2cc(N3CCOCC3)nc(-c3cccc4[nH]ccc34)n2)CC1	770	13	
